Measured values: patent publication US9102701B2, “17-hydroxy-17-pentafluoroethyl-estra-4,9(10)-diene-11-ethynylphenyl derivatives, methods for the production thereof and use thereof for treating diseases” (Bayer Intellectual Property GmbH, priority 2009, dated 2015)

Columns and labels:
[1] = molecular target: T1, human progesterone receptor B (Homo sapiens, UniProt P06401); assay: Progesterone receptor-antagonistic action in stably transfected SK-N-MC cells, PR-B, MMTV-LUC reporter; assay type: cell-based; settings: read-out: IC50 PR-B
T1 construct: expressed in transfected cells; host or cells: SK-N-MC human neuroblastoma cells, stably transfected with pRChPR-B-neo and pMMTV-LUC
T1 sequence (P06401 1-933): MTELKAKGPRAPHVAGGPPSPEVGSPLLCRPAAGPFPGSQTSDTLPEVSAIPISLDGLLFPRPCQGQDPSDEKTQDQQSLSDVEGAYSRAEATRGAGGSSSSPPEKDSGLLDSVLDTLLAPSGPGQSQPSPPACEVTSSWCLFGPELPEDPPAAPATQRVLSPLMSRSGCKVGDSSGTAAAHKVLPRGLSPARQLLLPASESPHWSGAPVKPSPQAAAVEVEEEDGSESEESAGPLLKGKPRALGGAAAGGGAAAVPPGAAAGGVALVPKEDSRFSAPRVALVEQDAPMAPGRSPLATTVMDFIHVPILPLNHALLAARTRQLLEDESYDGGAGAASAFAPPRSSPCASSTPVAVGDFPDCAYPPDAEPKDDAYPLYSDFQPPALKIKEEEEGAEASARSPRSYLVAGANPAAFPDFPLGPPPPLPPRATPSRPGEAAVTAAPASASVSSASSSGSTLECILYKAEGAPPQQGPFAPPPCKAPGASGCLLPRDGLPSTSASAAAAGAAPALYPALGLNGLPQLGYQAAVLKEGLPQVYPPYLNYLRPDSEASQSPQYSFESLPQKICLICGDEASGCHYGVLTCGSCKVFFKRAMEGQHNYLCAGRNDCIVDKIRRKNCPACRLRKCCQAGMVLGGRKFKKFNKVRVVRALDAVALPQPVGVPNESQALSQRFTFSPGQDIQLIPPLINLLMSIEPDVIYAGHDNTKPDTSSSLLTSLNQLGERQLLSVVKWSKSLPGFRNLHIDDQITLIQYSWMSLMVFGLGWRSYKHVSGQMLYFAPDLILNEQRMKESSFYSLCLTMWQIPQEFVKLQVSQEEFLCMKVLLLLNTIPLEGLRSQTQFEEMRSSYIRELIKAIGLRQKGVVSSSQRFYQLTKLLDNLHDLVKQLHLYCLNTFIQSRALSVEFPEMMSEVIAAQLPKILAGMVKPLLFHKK
Method: (§1) Determination of Progesterone Receptor-Antagonistic Action in Stable Transfectants of Human Neuroblastoma Cells (SK-N-MC Cells) with the Human Progesterone a or Progesterone B Receptor and an MN-LUC Reporter Construct
(§2) SK-N-MC cells (human neuroblastoma cells) which have been stably transfected with plasmids expressing the human progesterone receptor B (pRChPR-B-neo) or the human progesterone receptor A (pRChPR-A-neo) and a reporter construct (pMMTV-LUC) were incubated for 24 hours either in the absence (negative control) or in the presence of ascending amounts of the particular test compound (0.01 nmol/l, 0.1 nmol/l, 1 nmol/l, 10 nmol/l, 100 nmol/l and […]), in order to determine the agonistic efficacy. As a positive control of the reporter gene induction, the cells were treated with the synthetic gestagen promegestone (0.01 nmol/l, 0.1 nmol/l, 1 nmol/l, 10 nmol/l, 100 nmol/l and […]). To determine the antagonistic activity, the cells were treated with 0.1 nmol/l promegestone and additionally with ascending amounts of the particular test compound (0.01 nmol/l, 0.1 nmol/l, 1 nmol/l, 10 nmol/l, 100 nmol/l and […]). The activity of the reporter gene LUC (LUC=luciferase) was determined in the cell lysates and measured as RLU (relative light units). All measurements are reported as % efficacy and as EC50 and IC50 concentrations.

[2] = molecular target: T2, human progesterone receptor A (Homo sapiens, UniProt P06401); assay: Progesterone receptor-antagonistic action in stably transfected SK-N-MC cells, PR-A, MMTV-LUC reporter; assay type: cell-based; settings: read-out: IC50 PR-A
T2 construct: expressed in transfected cells; host or cells: SK-N-MC human neuroblastoma cells, stably transfected with pRChPR-A-neo and pMMTV-LUC
T2 sequence (P06401 1-769 isoform P06401-2): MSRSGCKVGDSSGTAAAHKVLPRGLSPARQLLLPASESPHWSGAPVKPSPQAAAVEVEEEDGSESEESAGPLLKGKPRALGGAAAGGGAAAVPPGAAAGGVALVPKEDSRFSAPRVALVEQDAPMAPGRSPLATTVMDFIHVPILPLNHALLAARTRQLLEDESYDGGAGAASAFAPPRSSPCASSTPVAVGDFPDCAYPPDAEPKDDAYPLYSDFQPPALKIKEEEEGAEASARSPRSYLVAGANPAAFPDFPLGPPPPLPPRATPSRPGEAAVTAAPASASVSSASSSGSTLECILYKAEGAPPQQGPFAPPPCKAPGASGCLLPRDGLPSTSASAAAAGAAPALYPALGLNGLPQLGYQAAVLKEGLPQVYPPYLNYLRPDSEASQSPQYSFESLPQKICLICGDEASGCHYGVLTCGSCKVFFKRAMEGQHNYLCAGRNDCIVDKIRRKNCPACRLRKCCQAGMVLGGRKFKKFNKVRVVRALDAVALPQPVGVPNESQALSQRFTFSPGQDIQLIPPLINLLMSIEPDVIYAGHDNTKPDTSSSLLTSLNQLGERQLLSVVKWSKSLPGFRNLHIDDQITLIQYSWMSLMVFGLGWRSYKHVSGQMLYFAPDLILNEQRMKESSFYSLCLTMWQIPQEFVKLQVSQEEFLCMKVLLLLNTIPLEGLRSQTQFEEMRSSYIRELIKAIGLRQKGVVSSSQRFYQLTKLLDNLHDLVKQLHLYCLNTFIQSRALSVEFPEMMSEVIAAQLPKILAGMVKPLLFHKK
Method: as §1, §2

Row | SMILES | IC50 [1] [nM] | IC50 [2] [nM]
1 | C[C@]12C[C@H](c3ccc(C#CC=NOCc4ccc(Cl)c(Cl)c4)cc3)C3=C4CCC(=O)C=C4CCC3C1CC[C@@]2(O)C(F)(F)C(F)(F)F (mixture of isomers) [Example 27, (E/Z)-[4-((8S,11R,13S,14S,17S)-17-hydroxy-13-methyl-3-oxo-17-pentafluoroethyl-2,3,6,7,8,11,12,13,14,15,16,17-dodecahydro-1H-cyclopenta[a]phenanthren-1′-yl)phenyl]propynal O-(3,4-dichlorobenzyl) oxime] | 2 | 0.97
2 | CCOC(=O)CCNC(=O)NCC#Cc1ccc([C@H]2C[C@@]3(C)C(CC[C@@]3(O)C(F)(F)C(F)(F)F)C3CCC4=CC(=O)CCC4=C32)cc1 (stereo partly drawn) [Example 30, 3-(3-{3-[4-((8S,11R,13S,14S,17S)-17-hydroxy-13-methyl-3-oxo-17-pentafluoroethyl-2,3,6,7,8,11,12,13,14,15,16,17-dodecahydro-1H-cyclopenta[a]phenanthren-1′-yl)phenyl]prop-2-ynyl}ureido)propionic acid ethyl ester] | 0.4 | 0.1
3 | C[C@]12C[C@H](c3ccc(C#CCNC(=O)Nc4ccc(Cl)cc4)cc3)C3=C4CCC(=O)C=C4CC[C@H]3[C@@H]1CC[C@@]2(O)C(F)(F)C(F)(F)F [Example 35, 1-{3-[4-((8S,11R,13S,14S,17S)-17-hydroxy-13-methyl-3-oxo-17-pentafluoroethyl-2,3,6,7,8,11,12,13,14,15,16,17-dodecahydro-1H-cyclopenta[a]phenanthren-11-yl)phenyl]prop-2-ynyl}-3-(4-chlorophenyl)urea] | 0.4 | 0.4
4 | CCOC(=O)/C=C/C#Cc1ccc([C@H]2C[C@@]3(C)C(CC[C@@]3(O)C(F)(F)C(F)(F)F)C3CCC4=CC(=O)CCC4=C32)cc1 (stereo partly drawn) [Example 6, (E)-5-[4-((8S,11R,13S,14S,17S)-17-hydroxy-13-methyl-3-oxo-17-pentafluoroethyl-2,3,6,7,8,11,12,13,14,15,16,17-dodecahydro-1H-cyclopenta[a]phenanthren-1′-yl)phenyl]pent-2-en-4-ynoic acid ethyl ester] | 12 | 13
5 | C[C@]12C[C@H](c3ccc(C#CCOCC#N)cc3)C3=C4CCC(=O)C=C4CCC3C1CC[C@@]2(O)C(F)(F)C(F)(F)F (stereo partly drawn) [Example 14, {3-[4-((8S,11R,13S,14S,17S)-17-hydroxy-13-methyl-3-oxo-17-pentafluoroethyl-2,3,6,7,8,11,12,13,14,15,16,17-dodecahydro-1H-cyclopenta[a]phenanthren-1′-yl)phenyl]prop-2-ynyloxy}acetonitrile] | 0.1 | 0.1
6 | C[C@]12C[C@H](c3ccc(C#CCOCc4nnn[nH]4)cc3)C3=C4CCC(=O)C=C4CC[C@H]3[C@@H]1CC[C@@]2(O)C(F)(F)C(F)(F)F [Example 18, (8S,11R,13S,14S,17S)-17-hydroxy-13-methyl-17-pentafluoroethyl-11-{4-[3-(1H-tetrazol-5-ylmethoxy)prop-1-yn-1-yl]phenyl}-1,2,6,7,8,11,12,13,14,15,16,17-dodecahydrocyclopenta[a]phenanthren-3-one] | 5 | 8
7 | C=CCNC(=O)NCC#Cc1ccc([C@H]2C[C@@]3(C)[C@@H](CC[C@@]3(O)C(F)(F)C(F)(F)F)[C@@H]3CCC4=CC(=O)CCC4=C32)cc1 [Example 41, 1-allyl-3-{3-[4-((8S,11R,13S,14S,17S)-17-hydroxy-13-methyl-3-oxo-17-pentafluoroethyl-2,3,6,7,8,11,12,13,14,15,16,17-dodecahydro-1H-cyclopenta[a]phenanthren-1′-yl)phenyl]prop-2-ynyl}urea] | 0.1 | 0.1
8 | CC(C)NC(=O)NCC#Cc1ccc([C@H]2C[C@@]3(C)[C@@H](CC[C@@]3(O)C(F)(F)C(F)(F)F)[C@@H]3CCC4=CC(=O)CCC4=C32)cc1 [Example 29, 1-{3-[4-((8S,11R,13S,14S,17S)-17-hydroxy-13-methyl-3-oxo-17-pentafluoroethyl-2,3,6,7,8,11,12,13,14,15,16,17-dodecahydro-1H-cyclopenta[a]phenanthren-11-yl)phenyl]prop-2-ynyl}-3-isopropylurea] | 0.1 | 0.1

Other lines, results leading:

Row | IC50 [1] [nM] | IC50 [2] [nM] | SMILES
9 | 0.08 | 0.09 | C[C@]12C[C@H](c3ccc(C#CCOC(=O)Nc4ccc(F)cc4)cc3)C3=C4CCC(=O)C=C4CCC3C1CC[C@@]2(O)C(F)(F)C(F)(F)F (stereo partly drawn) [Example 48, 4-fluorophenylcarbamic acid 3-[4-((8S,11R,13S,14S,17S)-17-hydroxy-13-methyl-3-oxo-17-pentafluoroethyl-2,3,6,7,8,11,12,13,14,15,16,17-dodecahydro-1H-cyclopenta[a]phenanthren-1′-yl)phenyl]prop-2-ynyl ester]
10 | 0.01 | 0.01 | CCNC(=O)OCC#Cc1ccc([C@H]2C[C@@]3(C)C(CC[C@@]3(O)C(F)(F)C(F)(F)F)C3CCC4=CC(=O)CCC4=C32)cc1 (stereo partly drawn) [Example 45, ethylcarbamic acid 3-[4-((8S,11R,13S,14S,17S)-17-hydroxy-13-methyl-3-oxo-17-pentafluoroethyl-2,3,6,7,8,11,12,13,14,15,16,17-dodecahydro-1H-cyclopenta[a]phenanthren-1′-yl)phenyl]prop-2-ynyl ester]
11 | 0.1 | 0.2 | COc1ccc(NC(=O)NCC#Cc2ccc([C@H]3C[C@@]4(C)[C@@H](CC[C@@]4(O)C(F)(F)C(F)(F)F)[C@@H]4CCC5=CC(=O)CCC5=C43)cc2)cc1 [Example 32, 1-{3-[4-((8S,11R,13S,14S,17S)-17-hydroxy-13-methyl-3-oxo-17-pentafluoroethyl-2,3,6,7,8,11,12,13,14,15,16,17-dodecahydro-1H-cyclopenta[a]phenanthren-11-yl)phenyl]prop-2-ynyl}-3-(4-methoxyphenyl)urea]
12 | 0.09 | 0.1 | C[C@]12C[C@H](c3ccc(C#CCOC(=O)Nc4ccc(N5CCCCC5)cc4)cc3)C3=C4CCC(=O)C=C4CCC3C1CC[C@@]2(O)C(F)(F)C(F)(F)F (stereo partly drawn) [Example 54, (4-piperidin-1-ylphenyl)carbamic acid 3-[4-((8S,11R,13S,14S,17S)-17-hydroxy-13-methyl-3-oxo-17-pentafluoroethyl-2,3,6,7,8,11,12,13,14,15,16,17-dodecahydro-1H-cyclopenta[a]phenanthren-1′-yl)phenyl]prop-2-ynyl ester]
